According to US20240239790A1, “7-Morpholino-1,6-Naphthyridin-5-yl Derivatives and Pharmaceutical Compositions Thereof Useful as DNA-PK Inhibitor” (adMare Therapeutics Society, priority 2021, published 2024):

How the values were obtained:
[1] = molecular target: T1, DNA-PK phosphorylation at Serine 2056 (Homo sapiens, UniProt P78527); assay: Cellular Assay for Inhibition of DNA-PK Phosphorylation at Serine 2056 in FaDu cells (sandwich ELISA, neocarzinostatin); assay type: cell-based; settings: pSer2056 DNA-PK, neocarzinostatin 1 μg/mL, Table 1
T1 construct: FaDu cells were purchased from ATCC; host or cells: FaDu
Method in brief: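 pSer2056 and total DNA-PK were measured by sandwich ELISA in BCA-normalised FaDu lysates. Cells had 1 h compound exposure (0.3% DMSO), then 2 h with 1 μg/mL final neocarzinostatin. IC50 was fitted (variable slope) to % inhibition scaled against NCS-stimulated and DMSO-only controls.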

DNA-PK = molecular target: T2, DNA-PK (Homo sapiens, UniProt P78527); assay: DNA-PK Assay for Biochemical Enzymatic Inhibition (ADP Glo Kinase assay); settings: DNA-PK enzyme, Table 1
T2 construct: purchased Invitrogen PR9107A
Method in brief: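 Human DNA-PK (25 ng) preincubated 15 min with compounds (ten three-fold dilutions) in HEPES pH 7.5, MgCl2, KCl, calf thymus DNA buffer, then substrate 434.4 μM and ATP 64.4 μM (final) for 60 min at room temperature. ADP-Glo luminescence; percent inhibition fitted by four-parameter regression for IC50.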

| IC50 [1] | IC50 (DNA-PK) | SMILES |
| --- | --- | --- |
| < 100 nM | < 0.5 nM | CN(C)C(=O)Cn1ccc2nc(N[C@H]3CC[C@@H](Oc4nc(N5CCOCC5)cc5ncccc45)CC3)ncc21 [Compound 86, N,N-Dimethyl-2-(2-(((1s,4s)-4-((7-morpholino-1,6-naphthyridin-5-yl)oxy)cyclohexyl)amino)-5H-pyrrolo[3,2-d]pyrimidin-5-yl)acetamide] |
| 100 to 1000 nM | < 0.5 nM | c1cnc2cc(N3CCOCC3)nc(O[C@H]3CC[C@@H](Nc4ncc(OCCN5CCOCC5)cn4)CC3)c2c1 [Compound 68, N-((1s,4s)-4-((7-Morpholino-1,6-naphthyridin-5-yl)oxy)cyclohexyl)-5-(2-morpholinoethoxy)pyrimidin-2-amine] |
| < 100 nM | 0.5 to 1 nM | CN(C)C(=O)COc1cnc(N[C@H]2CC[C@@H](Oc3nc(N4CCOCC4)cc4ncccc34)CC2)nc1 [Compound 54, N,N-Dimethyl-2-((2-(((1s,4s)-4-((7-morpholino-1,6-naphthyridin-5-yl)oxy)cyclohexyl)amino)pyrimidin-5-yl)oxy)acetamide] |
| < 100 nM | 0.5 to 1 nM | O=c1[nH]c2cnc(N[C@H]3CC[C@@H](Oc4nc(N5CCOCC5)cc5ncccc45)CC3)nc2n1C1CCOCC1 [Compound 95, 2-(((1s,4s)-4-((7-Morpholino-1,6-naphthyridin-5-yl)oxy)cyclohexyl)amino)-9-(tetrahydro-2H-pyran-4-yl)-7,9-dihydro-8H-purin-8-one] |
| < 100 nM | < 0.5 nM | O=C(Cn1c(=O)n(C2CCOCC2)c2nc(N[C@H]3CC[C@@H](Oc4nc(N5CCOCC5)cc5ncccc45)CC3)ncc21)N1CCOCC1 [Compound 98, 2-(((1s,4s)-4-((7-Morpholino-1,6-naphthyridin-5-yl)oxy)cyclohexyl)amino)-7-(2-morpholino-2-oxoethyl)-9-(tetrahydro-2H-pyran-4-yl)-7,9-dihydro-8H-purin-8-one] |
| 10000 to 30000 nM | < 0.5 nM | O=C(O)c1cnc2cc(N3CCOCC3)nc(O[C@H]3CC[C@@H](n4ccnc4)CC3)c2c1 [Compound 165, 5-(((1s,4s)-4-(1H-imidazol-1-yl)cyclohexyl)oxy)-7-morpholino-1,6-naphthyridine-3-carboxylic acid] |
| < 100 nM | < 0.5 nM | O=C(COc1cnc(N[C@H]2CC[C@@H](Oc3nc(N4CCOCC4)cc4ncccc34)CC2)nc1)N1CCC1 [Compound 75, 1-(Azetidin-1-yl)-2-((2-(((1s,4s)-4-((7-morpholino-1,6-naphthyridin-5-yl)oxy)cyclohexyl)amino)pyrimidin-5-yl)oxy)ethan-1-one] |
| 100 to 1000 nM | < 0.5 nM | O=S(=O)(CF)Nc1cnc2cc(N3CCOCC3)nc(O[C@H]3CC[C@@H](Nc4ncccn4)CC3)c2c1 [Compound 192, 1-fluoro-N-(7-morpholino-5-(((1s,4s)-4-(pyrimidin-2-ylamino)cyclohexyl)oxy)-1,6-naphthyridin-3-yl)methanesulfonamide] |
| < 100 nM | 0.5 to 1 nM | O=C(COc1cnc(N[C@H]2CC[C@@H](Oc3nc(N4CCOCC4)cc4ncccc34)CC2)nc1)N1CCOCC1 [Compound 61, 1-Morpholino-2-((2-(((1s,4s)-4-((7-morpholino-1,6-naphthyridin-5-yl)oxy)cyclohexyl)amino)pyrimidin-5-yl)oxy)ethan-1-one] |
| < 100 nM | 0.5 to 1 nM | CN(C)C(=O)COc1ccc(C(=O)N[C@H]2CC[C@@H](Oc3nc(N4CCOCC4)cc4ncccc34)CC2)cn1 [Compound 117, 6-(2-(dimethylamino)-2-oxoethoxy)-N-((1s,4s)-4-((7-morpholino-1,6-naphthyridin-5-yl)oxy)cyclohexyl)nicotinamide] |
| < 100 nM | < 0.5 nM | Cn1c(=O)n(C)c2nc(N[C@H]3CC[C@@H](Oc4nc(N5CCOCC5)cc5ncccc45)CC3)ncc21 [Compound 101, 7,9-Dimethyl-2-(((1s,4s)-4-((7-morpholino-1,6-naphthyridin-5-yl)oxy)cyclohexyl)amino)-7,9-dihydro-8H-purin-8-one] |

| SMILES | IC50 [1] | IC50 (DNA-PK) |
| --- | --- | --- |
| CN1CCN(C(=O)COc2cnc(N[C@H]3CC[C@@H](Oc4nc(N5CCOCC5)cc5ncccc45)CC3)nc2)CC1 [Compound 62, 1-(4-Methylpiperazin-1-yl)-2-((2-(((1s,4s)-4-((7-morpholino-1,6-naphthyridin-5-yl)oxy)cyclohexyl)amino)pyrimidin-5-yl)oxy)ethan-1-one] | < 100 nM | < 0.5 nM |
